In patent US8791265B2, “Sulfonamido derivatives of 3,4-diarylpyrazoles as protein kinase inhibitors” (Nerviano Medical Sciences S.R.L., priority 2010, dated 2014):

Experiments:
[1] = tested on: human melanoma cells A375 (with a mutated B-RAF); test: In vitro cell proliferation assay, A375; type: cell-based; settings: A-375, 72 hours treatment, cell number by ATP monitoring
Experimental: (§1) Exponentially growing human melanoma cells A375 (with a mutated B-RAF) and human melanoma cells Mewo (with wild-type B-Raf) were seeded and incubated at 37° C. in a humidified 5% CO2 atmosphere. After 24 hours, scalar doses of the compound were added to the medium and cells oncubated for 72 hours. At the end of treatment, cells were washed and counted. Cell number was determined by a cellular adenosine triphosphate monitoring system. Cell proliferation was compared to control cells and the concentration inhibiting cell growth by 50% was calculated.

[2] = tested on: human melanoma cells Mewo (with wild-type B-Raf); test: In vitro cell proliferation assay, Mewo; type: cell-based; settings: 72 hours treatment, cell number by ATP monitoring
Experimental: as §1

[3] = tested on: p-MAPK (T202/Y204) in A375 human melanoma cells, having a mutated B-RAF; test: p-MAPK (T202/Y204) ArrayScan assay; type: cell-based; settings: A-375, 1.5 or 2 hours treatment, p-MAPK cytoplasmatic fluorescence intensity, read-out: Array Scan A375 IC50
Experimental: A375 human melanoma cells, having a mutated B-RAF, are seeded in 384-well poly-lysine coated plates (Matrix) at a density of 1000 cells/well with appropriate medium supplemented with 10% FCS and incubated for 16-24 hours. Cells are treated for 1.5 or 2 hours with increasing doses of compounds (starting dose 10 μM, dilution factor 2.5). At the end of the treatment cells are fixed with p-formaldehyde 3.7% for 15-30 min, then I/well) and permeabilized with D-PBS containing washed twice with D-PBS (80 0.1% Triton X-100 and 1% BSA (Sigma-Aldrich) for 15 minutes at room temperature (staining solution). Anti-phospho-MAPK (T202/Y204) monoclonal antibody E10 (Cell Signaling, cat. #9106) diluted 1:100 is added in staining solution and incubated for 1 hour at 37° C. After removal of the primary antibody solution, the anti-mouse Cy™2-conjugated (Green) secondary antibody (Amersham) diluted 1:500 in staining solution containing 2 μg/ml DAPI is added. The plate is incubated for 1 hour at 37° C., washed twice and then red with Cellomics' ArrayScan VTI (4 fields/well, CytoNucTrans algorithm).
The parameter “MEAN_RingAvgIntenCh2”, which measures the mean cytoplasmatic fluorescence intensity associated to p-MAPK staining, is reported as the final result.

[4] = Stability study in PBS buffer pH 7.4; type: physicochemical; settings: PBS pH 7.4, 37° C., 0-120 minutes, HPLC/MS; FIG. 1
Experimental: (§2) A compound of formula (I) of the present invention, dissolved in DMSO, was incubated at 37° C. in PBS at pH 7.4 or fresh mouse plasma. Aliquots were withdrawn and analysed by HPLC/MS at 0, 5, 15, 60 and 120 minutes. The UV signal in the range 210-400 nm was used for the quantification of the chromatographic peaks either of the compound of formula (I) and the parent compound of formula (II).

[5] = In vitro conversion of prodrug into parent compound in fresh mouse plasma; type: in vitro ADME; settings: 37° C., 0-120 minutes, HPLC/MS, FIG. 2
Experimental: as §2

Compound	IC50 [1]	IC50 [2]	IC50 [3]	stability in PBS buffer [4]	conversion into the parent compound in fresh mouse plasma [5]
CCOC(=O)N(c1ccc(F)c(-c2nn(CC)cc2-c2ccncc2)c1F)S(=O)(=O)c1cc(F)ccc1F [Cmpd. No. 2, ethyl [(2,5-difluorophenyl)sulfonyl]{3-[1-ethyl-4-(pyridin-4-yl)-1H-pyrazol-3-yl]-2,4-difluorophenyl}carbamate]	370 nM	> 10000 nM	140 nM	stable in buffer	rapidly converted into the corresponding parent compound
CCn1cc(-c2ccncc2)c(-c2c(F)ccc(N(C(=O)OC(C)C)S(=O)(=O)c3cc(F)ccc3F)c2F)n1 [Cmpd. No. 4, propan-2-yl [(2,5-difluorophenyl)sulfonyl]{3-[1-ethyl-4-(pyridin-4-yl)-1H-pyrazol-3-yl]-2,4-difluorophenyl}carbamate]	20 nM	> 10000 nM	20 nM	–	–
CCCOC(=O)N(c1ccc(F)c(-c2nn(CC)cc2-c2ccncc2)c1F)S(=O)(=O)c1cc(F)ccc1F [compound 3, propyl [(2,5-difluorophenyl)sulfonyl]{3-[1-ethyl-4-(pyridin-4-yl)-1H-pyrazol-3-yl]-2,4-difluorophenyl}carbamate]	20 nM	> 10000 nM	20 nM	–	–
CCn1cc(-c2ccncc2)c(-c2c(F)ccc(N(COC(C)=O)S(=O)(=O)c3cc(F)ccc3F)c2F)n1 [compound 7, ([(2,5-difluorophenyl)sulfonyl]{3-[1-ethyl-4-(pyridin-4-yl)-1H-pyrazol-3-yl]-2,4-difluorophenyl}amino)methyl acetate]	20 nM	> 10000 nM	20 nM	–	–

The remaining compounds from weak to strong by IC50 [1], led by results:

IC50 [1]	IC50 [2]	IC50 [3]	stability in PBS buffer [4]	Compound	conversion into the parent compound in fresh mouse plasma [5]
170 nM	> 10000 nM	20 nM	–	CCOC(=O)N(c1ccc(F)c(-c2nn(C)cc2-c2ccncc2)c1F)S(=O)(=O)c1cc(F)ccc1F [compound 12, ethyl [(2,5-difluorophenyl)sulfonyl]{3-[1-methyl-4-(pyridin-4-yl)-1H-pyrazol-3-yl]-2,4-difluorophenyl}carbamate]	–
90 nM	> 10000 nM	50 nM	–	CCn1cc(-c2ccnc(N)c2)c(-c2c(F)ccc(N(C(C)=O)S(=O)(=O)c3cc(F)ccc3F)c2F)n1 [Cmpd. No. 45, N-{3-[4-(2-aminopyridin-4-yl)-1-ethyl-1H-pyrazol-3-yl]-2,4-difluorophenyl}-N-[(2,5-difluorophenyl)sulfonyl]acetamide]	–
20 nM	> 10000 nM	20 nM	–	CCn1cc(-c2ccncc2)c(-c2c(F)ccc(N(C(=O)OC)S(=O)(=O)c3cc(F)ccc3F)c2F)n1 [compound 1, methyl [(2,5-difluorophenyl)sulfonyl]{3-[1-ethyl-4-(pyridin-4-yl)-1H-pyrazol-3-yl]-2,4-difluorophenyl}carbamate]	–
20 nM	> 10000 nM	20 nM	–	CCn1cc(-c2ccncc2)c(-c2c(F)ccc(N(C(C)=O)S(=O)(=O)c3cc(F)ccc3F)c2F)n1 [compound 5, N-[(2,5-difluorophenyl)sulfonyl]-N-{3-[1-ethyl-4-(pyridin-4-yl)-1H-pyrazol-3-yl]-2,4-difluorophenyl}acetamide]	–
